Experimental data published in publication PMC3066540, “Molecular characterization of O-methyltransferases involved in isoquinoline alkaloid biosynthesis in Coptis japonica” (Proceedings of the Japan Academy. Series B, Physical and …, 2010).
Each block holds one compound with its values, some of them ahead of it.

Columns and labels:
64′-OMT [1] = test system: T1, 64′-OMT; experiment: [3H]methyl transfer assay, double-reciprocal plots with secondary replots; assay type: biochemical, Coptis japonica; conditions: 30 °C
T1 construct: gene 6-OMT; pET-21d, no vector-derived peptides, E. coli BL21(DE3), purified; subunit ca. 40 kDa, native ca. 63 kDa, dimer

6-OMT = biological target: T2, 6-OMT (Coptis japonica, UniProt Q9LEL6); experiment: LC/MS product analysis; assay type: biochemical; conditions: 1 mM acceptor, 1 mM AdoMet, pH 7.5, 30 °C; presumed 3'-O-methylation; crude E. coli lysate
T2 construct: full length, recombinant in E. coli, crude lysate; dimer

64′-OMT [2] = biological target: T1, 64′-OMT; experiment: [3H]methyl transfer assay, inhibition kinetics; assay type: biochemical, Coptis japonica; conditions: competitive with AdoMet; varied substrate AdoMet, methyl acceptor norlaudanosoline; 30 °C

T2 sequence (Q9LEL6 whole entry): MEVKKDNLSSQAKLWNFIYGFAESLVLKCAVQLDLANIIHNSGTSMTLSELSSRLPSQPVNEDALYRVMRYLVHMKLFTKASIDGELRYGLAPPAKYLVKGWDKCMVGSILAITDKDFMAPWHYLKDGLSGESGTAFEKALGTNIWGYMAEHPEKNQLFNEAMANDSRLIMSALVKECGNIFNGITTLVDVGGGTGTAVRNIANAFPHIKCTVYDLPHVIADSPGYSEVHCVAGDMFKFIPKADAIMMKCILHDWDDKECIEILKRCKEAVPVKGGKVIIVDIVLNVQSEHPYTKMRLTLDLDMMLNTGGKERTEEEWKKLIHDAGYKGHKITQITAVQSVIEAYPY

SMILES: Oc1ccc(CC2NCCc3cc(O)c(O)cc32)cc1O (racemic) [(R,S)-norlaudanosoline]
- Km (64′-OMT [1]; co-substrate [3H]AdoMet varied): 109 µM

SMILES: COc1cc2c(cc1O)[C@H](Cc1ccc(O)c(O)c1)N(C)CC2 [3′-hydroxy-N-methylcoclaurine]
- LC/MS product analysis (6-OMT): 6-OMT showed a weak but evident peak that was distinct

- Ki (64′-OMT [2]): 70 µM
SMILES: Nc1ncnc2c1ncn2[C@@H]1O[C@H](CSCC[C@H](N)C(=O)O)[C@@H](O)[C@H]1O [AdoHcy]

- Km (64′-OMT [1]; co-substrate (R,S)-norlaudanosoline varied, labelled compound): 187 µM
SMILES: C[S+](CC[C@H](N)C(=O)O)C[C@H]1O[C@@H](n2cnc3c(N)ncnc32)[C@H](O)[C@@H]1O (stereo partly shown) [AdoMet]
